Measured values as given in article PMC11050282, “In Vitro and In Silico Studies on Cytotoxic Properties of Oxythiamine and 2′-Methylthiamine” (International Journal of Molecular Sciences, 2024).

Experiments:
HeLa cells [1] = assay: Cell counting / growth curves in in vitro culture; assay type: cell-based, human; details: for decrease in HeLa cell number compared to the control: 47 µM; for number of HeLa cells, % of the control: 1500 µM (maximum concentration); for GI50: HeLa cells, concentration causing 50% cell growth inhibition, from cell growth graphs, mean ± SD; for growth of HeLa cells in culture: microscopic observation / growth curves
[2] = system: fibroblasts (ATCC-CRL-2106); assay: Cell counting / growth curves in in vitro culture; assay type: cell-based, human; details: for fibroblast cell number / growth in comparison to the controls: 6–1500 µM; for GI50: Homo sapiens, Fibroblast, fibroblasts, concentration causing 50% cell growth inhibition, from cell growth graphs
[3] = system: fibroblasts (ATCC-CRL-2106); assay: MTT test (cell metabolic activity); assay type: cell-based, human; details: for IC50: Homo sapiens, Fibroblast, fibroblasts, 50% reduction in cell metabolism rate, MTT test
Protocol: (§1) We investigated the cytotoxicity and effects of oxythiamine and 2′-methylthiamine on fibroblast (ATCC-CRL-2106) and HeLa (the human cervical cancer cell line; CCL-2; ATCC, Manassas, VA, USA) cell growth. Fibroblasts were at passage 5 and HeLa cells were at passage 15. Cells were cultured under the 5% CO2 and 95% humidity in Medium199 (M4530; Sigma-Aldrich, St. Louis, MO, USA) with 10% fetal bovine serum (F7524; Sigma-Aldrich), 50 U/mL penicillin, and 50 µg/mL streptomycin (P0781; Sigma-Aldrich) at 37 °C. The media was changed every 2 days. Cells were seeded at the density of 1 × 10^5 cells/well in 12-well plates one day prior to the addition of the test compounds. […] The toxicity of oxythiamine and 2′-methylthiamine was determined by means of colorimetric detection using the MTT test. The cells were incubated for 0.5 h in 0.5 mL of PBS with 50 μL of MTT (5 mg/mL). The medium was then removed from the wells, and formazan crystals were dissolved in 0.5 mL of dimethyl sulfoxide (DMSO) with 0.01 mL of Sorensen’s buffer. Absorbance was measured by means of the Lambda E plate reader (MWG Biotech AG, Ebensburg, Germany) at a wavelength of 570 nm. The results were expressed as a percentage of the controls. […] The experiments were conducted in six independent replicates for the purpose of statistical evaluation.

HeLa cells [4] = assay: MTT test (cell metabolic activity); assay type: cell-based, human; details: for IC50: HeLa cells, 50% reduction in cell metabolism rate, MTT test; for IC50 / SI (selectivity index): mean ± SD; for SI (selectivity index): ratio of IC50 (MTT) fibroblasts versus HeLa cells
Protocol: as §1

yeast transketolase = biological target: yeast transketolase; set-up: method as in PMID 13719876; details: cited from earlier work
rat liver transketolase = biological target: rat liver transketolase; set-up: method as in PMID 3730445; details: cited from earlier work
[5] = system: primary human gingival fibroblasts; set-up: method as in PMID 35409800; details: 100 µM; cited from earlier work
human skin fibroblasts = system: human skin fibroblasts; set-up: method as in PMID 25626895; details: 30 µM to 1000 µM; cited from earlier work
THTR1 (SLC19A2) = details: thiamine transport by THTR1; cited from earlier work
THTR2 (SLC19A3) = details: thiamine transport by THTR2; cited from earlier work
OCT1 = details: OCT1-related transport of drugs to cancer cells; cited from earlier work

| GI50 (HeLa cells [1]; Homo sapiens, HeLa) | IC50 (HeLa cells [4]; Homo sapiens) | Compound | decrease in HeLa cell number compared to the control (HeLa cells [1]) | number of HeLa cells, % of the control (HeLa cells [1]) | GI50 (HeLa cells [1]) | growth of HeLa cells in culture (HeLa cells [1]) | fibroblast cell number / growth in comparison to the controls [2] | GI50 [2] | IC50 [3] | SI (selectivity index) (HeLa cells [4]) | reduction in cell viability [5] | also measured |
| --- | --- | --- | --- | --- | --- | --- | --- | --- | --- | --- | --- | --- |
| 83 µM | 112 µM | Cc1ncc(C[n+]2c(C)sc(CCO)c2C)c(N)n1 [2′-methylthiamine, 2-[3-[(4-Amino-2-Methylpyrimidin-5-yl)methyl]-2,4-dimethyl-1,3-thiazol-3-ium-5-yl]ethanol] | decrease in the cell number by only about a half | ~25% | 107 µM | inhibit the growth | did not find any significant differences | > 1500 µM | > 1500 µM | 180 | – | melting point: 211 to 214 °C; decrease of metabolic activity of HeLa cells (MTT) concerning the control (HeLa cells [4]; 750 µM): 30% |
| – | – | C/C(=C(\CCOP(=O)(O)O)SC(=O)c1ccccc1)N(C=O)Cc1cnc(C)[nH]c1=O [benfooxythiamine] | – | – | – | – | – | – | – | – | about 10% | – |
| > 1500 µM | > 1500 µM | Cc1ncc(C[n+]2csc(CCO)c2C)c(N)n1 [thiamine] | – | – | – | did not observe any differences | did not observe any differences | > 1500 µM | > 1500 µM | – | – | Km (THTR1 (SLC19A2)): 2.5 µM; Km (THTR2 (SLC19A3)): 0.00027 µM; metabolic activity of fibroblasts (MTT) ([3]; concentrations above 47 µM): slightly increased |
| – | – | COc1cccc2c1C(=O)c1c(O)c3c(c(O)c1C2=O)C[C@@](O)(C(=O)CO)C[C@@H]3O[C@H]1C[C@H](N)[C@H](O)[C@H](C)O1 [doxorubicin] | – | – | – | – | – | – | – | – | – | Km (OCT1): 4.6 µM |

| Compound | GI50 (HeLa cells [1]; Homo sapiens, HeLa) | IC50 (HeLa cells [4]; Homo sapiens) | decrease in HeLa cell number compared to the control (HeLa cells [1]) | number of HeLa cells, % of the control (HeLa cells [1]) | GI50 (HeLa cells [1]) | growth of HeLa cells in culture (HeLa cells [1]) | fibroblast cell number / growth in comparison to the controls [2] | GI50 [2] | IC50 [3] | SI (selectivity index) (HeLa cells [4]) | reduction in cell viability [5] | also measured |
| --- | --- | --- | --- | --- | --- | --- | --- | --- | --- | --- | --- | --- |
| Cc1ncc(C[n+]2csc(CCO)c2C)c(O)n1 [oxythiamine] | 39 µM | 51 µM | higher than five-fold decrease | 2% | 36 µM | inhibit the growth | did not find any significant differences | > 1500 µM | > 1500 µM | 153 | about 10% | IC50 (yeast transketolase): ~0.03 µM; activity at 47 µM (HeLa cells [4]; Homo sapiens, HeLa, 47 µM, read-out: metabolic activity of HeLa cells (MTT), % of control): 50%; IC50 (rat liver transketolase): 0.2 µM; cell survival (human skin fibroblasts): not affecting cell survival |
